Measurements from publication PMC7156724, “Potent BRD4 inhibitor suppresses cancer cell-macrophage interaction” (Nature Communications, 2020).
Where “and” joins values, the source holds several entries; their conditions need not be identical. Equal entries are not always repeated.

Columns and labels:
TAMs = test: Transwell 3D co-culture of pretreated A2780 cells and TAMs, spheroid volume; assay type: cell-based, mouse
Description: A2780 tumor cells were pretreated with 100 nM NHWD-870 and then directly co-cultured with TAMs (A2780:TAMs ratio as 4:1) at the density of 1 × 10^5 total cells in a 12-well. Shown are immunofluorescent staining of Ki67 and CD68 (a) and quantification of Ki67+ and CD68− or CD68+ cells (b). Scale bar is 50 μm. […] A2780 cells (pre-treated with or without 100 nM NHWD-870 for 48 h) were seeded into the top chamber (transwell size: 0.4 μm) and TAMs (Mac, 40,000 cells per 24-well) in medium containing 2% matrigel were seeded into the bottom chamber pre-coated with Matrigel. No NHWD-870 was added to the co-culture. The upper chamber without A2780 cells was used as a control. Shown are schematics of transwell co-culture experiment (c), representative pictures of TAM spheroid (d: black/white), and quantification of spheroid volumes (e). Scale bar is 50 μm. […] Data are presented as mean ± SEM from three independent experiments. g CSF1 protein levels in supernatant of 10^6 ID8, B16, A2780, SKOV3, and A375 cells treated with DMSO or 25 nM NHWD-870 for 24 h, as measured by ELISA. […] Scale bar is 20 μm. i Quantification of CSF1 staining in DMSO or 100 nM NHWD-870 treated A2780 cells. […] Shown are representative immunofluorescent staining of CSF1 (green) and CD68 (red) (j) and quantification of CSF1 staining (k). […]

H526 cells = test: MTT cell growth assay, H526; assay type: cell-based, human; settings: 5 days
Description: Fig. 2 NHWD-870 inhibited BRD4 phosphorylation and c-MYC expression, and suppressed cell growth. a Representative western blot analysis of p-BRD4 (s484/488), BRD4, c-MYC, and GAPDH after treatment of MDA-MB231, SUM159, A2780 ES-2, and H526 cells with JQ-1 or NHWD-870 at the indicated concentrations for 24 h. GAPDH served as the loading control. Selected from three independent experiments. b MTT assays of H526, A2780, ES-2, and MDA-MB231 cells treated with JQ-1 or NHWD-870 at the indicated concentrations for 5 days. Data are presented as mean ± SEM from three independent experiments. c, d Clonogenic assays of H526, A2780, ES-2 and MDA-MB231 cells treated with 250 nM JQ-1 or NHWD-870 for 5 days. Shown are representative images (c) and quantification of colonies (d). […] Shown are representative images (e) and quantification of relative colony sizes (f). Scale bar, 50 μm. Data are presented as mean ± SEM from five independent experiments. p values were calculated using two-tailed, unpaired t tests in this figure. **p < 0.01; ***p < 0.001. Source data are provided as a Source Data file.
37℃, 5% CO2. […]

Cc1nnn(C)c1-c1cnc2c3c4cnn(C)c4ccc3n([C@H](c3ccccc3)C3CCOCC3)c2c1 [NHWD-870]
fold decrease of the growth of TAMs (TAMs; 100 nM, 3-D culture, Fig 5c-e): about 8 fold
ability of A2780 to support the growth of TAMs (TAMs; A2780 pretreated with 100 nM, 3D co-culture): completely abolished the ability of A2780 to support the growth of TAMs
MTT assay, relative cell number (H526 cells; H526, 0.1 nM): 0.977 and 0.969 and 0.948
MTT assay, relative cell number (H526 cells; H526, 1 nM): 0.658 and 0.633 and 0.625
MTT assay, relative cell number (H526 cells; H526, 10 nM): 0.268 and 0.226 and 0.235
MTT assay, relative cell number (H526 cells; H526, 100 nM): 0.103 and 0.115 and 0.127
MTT assay, relative cell number (H526 cells; H526, 500 nM): 0
MTT assay, relative cell number (H526 cells; H526, 1000 nM): 0
MTT assay, relative cell number (H526 cells; H526, 5000 nM): 0
MTT assay, relative cell number (H526 cells; H526, 10000 nM): 0
